Active and inactive are the calls of the source.
Legend:
[1] = target: Likely tRNA 2'-phosphotransferase (Candida albicans (strain SC5314 / ATCC MYA-2876) (Yeast), UniProt Q5A7N4); assay: TPT1 tRNA phosphotransferase inhibitors, dose response, biochemical, fluorescence polarization (AID 2160)
SUMO-activating enzyme [2] = target: T1, SUMO-activating enzyme (Homo sapiens, UniProt Q9UBT2); assay: inhibitors of in vitro SUMOylation cascade, primary screen, biochemical, HTRF, uHTS (AID 2006); type: protein-complex assay
SUMO-activating enzyme [3] = target: T1, SUMO-activating enzyme; assay: SUMOylation inhibitor hit validation, confirmation, SUMOylation inhibitor project, biochemical, AlphaScreen (AID 2018); type: functional
[4] = target: Guanyl-specific ribonuclease T1 (Aspergillus oryzae (strain ATCC 42149 / RIB 40), UniProt P00651); assay: RNase T1 inhibitors, dose response, counter-screen for TPT1 inhibitor project, biochemical, fluorescence polarization, 1536-well (AID 2167)
Staphylococcus aureus = assay: Inhibitors of Bacterial Quorum Sensing Structure Activity Relationship (SAR) Analysis: Dose Response Assay. [Related pubchem assays: 700, 527 ]; type: functional, organism-based
Protein Rev = Protein Rev (Human immunodeficiency virus type 1 group M subtype B (isolate WMJ22)(HIV-1), UniProt P05866); assay: HIV-1 Rev-RRE RNA binding disruptors, dose response, biochemical, protein-RNA interaction (AID 842); parameters: species or system Human immunodeficiency virus 1
[5] = target: Mothers against decapentaplegic homolog 3 (Homo sapiens, UniProt P84022); assay: Smad3 binding inhibitors, lysate ELISA, dose response, cell lysate, secondary confirmation, chemiluminescent ELISA, HEK293 lysate (AID 1058); type: functional
[6] = inhibitors of HIV Env-driven cell fusion, dose response, cherry-pick (AID 652057); type: functional, cell-based
Cytochrome P450 2C9 = Cytochrome P450 2C9 (Homo sapiens, UniProt P11712); conditions: Potency
[7] = ZM109 Env clade C HIV-1 fusion inhibitors, dose response, HeLa effector, CEM target cells, luciferase, cherry-pick (AID 652058); type: functional, cell-based
[8] = inhibitors of clade B AD8 Env fusion, dose response, cell-based, cherry-pick (AID 652062); type: functional;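 note: luciferase signal from cell-cell fusion driven by HIV-1 clade B AD8 Env; potency is for inhibitors of fusion seen as a drop in luminescence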
[9] = CEM21 lymphoblast cell cytotoxicity, dose response, cytotoxicity control for viral fusion inhibitor project, CellTiter-Glo luminescence, cherry-picked (AID 652042); type: functional, cell-based;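 note: potency for signal decrease meaning cytotoxicity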
[10] = off-target signal loss in HeLa-CEM21 co-culture – HeLa F-luc CTL cells, cherry-picked, counter-screen for HIV-1 Env fusion inhibitor project, dose response (AID 652040); type: functional, cell-based;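 note: potency for signal decrease marking cytotoxic or nonspecific inhibition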
Cytochrome P450 2C19 = Cytochrome P450 2C19 (Homo sapiens, UniProt P33261); assay: qHTS Assay for Inhibitors and Substrates of Cytochrome P450 2C19. [Related pubchem assays: 410 ]; type: ADME; conditions: read-out: Potency
[11] = Luminescence Cell-Based Dose Confirmation HTS to Identify Inhibitors of Platelet Dense Granule Release. [Related pubchem assays: 1663 (Primary HTS), 1678 (Summary of Project)]; type: functional
[12] = inhibition of ADP-Glo detection reagents, dose response, artefact control for CDK5 inhibitor project, biochemical, luminescence, cherry-picked samples, set 2 (AID 504546); type: functional
Interleukin-8 = target: T2, Interleukin-8 (Homo sapiens, UniProt P10145); assay: SAR analysis of tumor necrosis factor alpha (TNF-alpha) induced IL-8 secretion in MCF-7/NOD1 cells. [Related pubchem assays (depositor defined):AID1575, AID2250, AID2260]; type: functional, cell-based
T2 sequence (P10145 whole entry): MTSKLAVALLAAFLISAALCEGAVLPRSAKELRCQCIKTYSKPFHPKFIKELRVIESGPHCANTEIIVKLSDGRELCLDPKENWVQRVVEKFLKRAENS

[13] = target: Sphingosine 1-phosphate receptor 4 (Homo sapiens, UniProt O95977); assay: Fluorescence dose response cell-based high throughput screening assay for antagonists of the Sphingosine 1-Phosphate Receptor 4 (S1P4). [Related pubchem assays: 1524 (Confirmation in triplicates.), 1510 (Primary screen.)]; type: functional
[14] = target: G2/mitotic-specific cyclin-B1 (Homo sapiens, UniProt P14635); assay: Counterscreen assay for inhibitors of Wee1 degradation: dose response cell-based assay to identify inhibitors of cyclin B degradation. [Related pubchem assays: 1410, 1321 ]; type: functional
Wee1-like protein kinase = Wee1-like protein kinase (Homo sapiens, UniProt P30291); assay: Dose Response Cell-based Assay for Inhibitors of Wee1 Degradation. [Related pubchem assays: 1410, 1321 ]; type: functional
[15] = cytotoxicity in HEK-293T cells, dose response, cytotoxicity control for TCR NF-kB inhibitor project, luminescence, T-cell screen hits (AID 489026); type: functional, cell-based;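 note: cells exposed to compound about 14 hours before the viability readout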
[16] = target: Sphingosine 1-phosphate receptor 1 (Homo sapiens, UniProt P21453); type: functional;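 note: Tango beta-arrestin reporter U2OS cells stimulated with S1P near its EC80; inhibitor potency meaning antagonism of receptor activation by the natural agonist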
Beta-galactosidase [17] = target: T3, Beta-galactosidase (Escherichia coli, UniProt Q8VNN2); type: functional
[18] = target: T4, Kappa-type opioid receptor (Homo sapiens, UniProt P41145); type: functional
[19] = target: Sphingosine 1-phosphate receptor 2 (Homo sapiens, UniProt O95136); assay: Dose Response Cell Based Assay for Antagonists of the S1P2 Receptor. [Related pubchem assays: 856, 736 ]; type: functional
HeLa = assay: Cytotoxicity counterscreen assay for transcriptional activators of heat shock protein 70 (Hsp70). [Related pubchem assays: 1203, 1252 ]; type: functional; conditions: Homo sapiens
[20] = target: T4, Kappa-type opioid receptor; type: functional; remark: listed apart in the source
[21] = target: Luciferin 4-monooxygenase (Photinus pyralis, UniProt P08659); assay: firefly luciferase enzyme inhibitors, dose response, biochemical, luminescence (AID 1891)
INS1 = assay: beta cell apoptosis inhibitors, cytokine rescue, dose response, luminescence, retest (AID 449756); type: functional, cell-based; conditions: Rattus norvegicus;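 note: cell death triggered by IL-1 beta plus TNF-alpha plus IFN-gamma mixture; protective hits raise ATP signal compared with cytokine alone wells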
Beta-galactosidase [22] = target: T3, Beta-galactosidase; assay: PubChem AID 485352; type: functional
[23] = target: E3 ubiquitin-protein ligase Mdm2 (Homo sapiens, UniProt Q00987); assay: enhancers of MDM2-luciferase reporter signal, concentration-effect titration, project on inhibitors of MDM2 ubiquitin ligase, cellular assay, luminescent readout, 384-well plate format (AID 1394); type: functional;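 note: MDM2 E3 inhibitors raise luminescence so EC50 is for signal enhancement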
[24] = target: T5, Type-1 angiotensin II receptor (Homo sapiens, UniProt P30556); assay: AT1 receptor antagonists, dose response, selectivity assay for APJ receptor antagonist project, cell-based, uHTS hits (AID 463214); type: functional;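 note: antagonist potency against angiotensin II stimulated AT1 response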
T5 sequence (P30556 whole entry): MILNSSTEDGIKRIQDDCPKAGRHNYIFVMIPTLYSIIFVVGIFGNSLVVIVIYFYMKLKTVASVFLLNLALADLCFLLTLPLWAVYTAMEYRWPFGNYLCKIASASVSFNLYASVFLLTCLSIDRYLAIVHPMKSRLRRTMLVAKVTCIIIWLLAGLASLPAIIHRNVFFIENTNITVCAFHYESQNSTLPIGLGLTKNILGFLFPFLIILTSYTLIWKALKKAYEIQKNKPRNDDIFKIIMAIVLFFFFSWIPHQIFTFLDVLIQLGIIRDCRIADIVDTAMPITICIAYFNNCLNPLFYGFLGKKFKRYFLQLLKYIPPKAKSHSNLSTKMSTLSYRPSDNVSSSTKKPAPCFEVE

[25] = microbe, parasite or virus in culture; type: functional; conditions: Mycobacterium tuberculosis
[26] = Luminescence-based dose response cell-based high throughput screening assay for cytotoxic compounds using the IEC-6 intestinal epithelial cell line. [Related pubchem assays: 1858 (Summary AID.), 1825 (Counterscreen.), 1907 (Confirmation screen.)]; type: functional
[27] = target: Scavenger receptor class B member 1 (Mus musculus, UniProt Q61009); assay: inhibitors of SR-BI mediated HDL lipid uptake, dose response, ldlA[mSR-BI] cells, fluorescence, cherry pick (AID 493194); type: functional, cell-based;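 note: cellular uptake of fluorescent DiI-labeled HDL measured as cell fluorescence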
[28] = target: Lysosomal acid glucosylceramidase (Homo sapiens, UniProt P04062); assay: Dose response cell-based high throughput screening assay to identify enhancers of beta-glucosidase activity. [Related pubchem assays: 784 ]; type: functional
[29] = target: Nucleotide-binding oligomerization domain-containing protein 2 (Homo sapiens, UniProt Q9HC29); assay: PubChem AID 2334; type: functional
Tumor necrosis factor = Tumor necrosis factor (Homo sapiens, UniProt P01375); assay: TNFa-triggered NF-kB activation inhibitors, SAR follow-up, cell-based, revised (AID 2337); type: functional
HEK293 = assay: cells; conditions: Homo sapiens
[30] = target: T6, Nucleotide-binding oligomerization domain-containing protein 1 (Homo sapiens, UniProt Q9Y239); assay: NOD1 signaling inhibitors, SAR follow-up, revised (AID 2333); type: functional
T6 sequence (Q9Y239 whole entry): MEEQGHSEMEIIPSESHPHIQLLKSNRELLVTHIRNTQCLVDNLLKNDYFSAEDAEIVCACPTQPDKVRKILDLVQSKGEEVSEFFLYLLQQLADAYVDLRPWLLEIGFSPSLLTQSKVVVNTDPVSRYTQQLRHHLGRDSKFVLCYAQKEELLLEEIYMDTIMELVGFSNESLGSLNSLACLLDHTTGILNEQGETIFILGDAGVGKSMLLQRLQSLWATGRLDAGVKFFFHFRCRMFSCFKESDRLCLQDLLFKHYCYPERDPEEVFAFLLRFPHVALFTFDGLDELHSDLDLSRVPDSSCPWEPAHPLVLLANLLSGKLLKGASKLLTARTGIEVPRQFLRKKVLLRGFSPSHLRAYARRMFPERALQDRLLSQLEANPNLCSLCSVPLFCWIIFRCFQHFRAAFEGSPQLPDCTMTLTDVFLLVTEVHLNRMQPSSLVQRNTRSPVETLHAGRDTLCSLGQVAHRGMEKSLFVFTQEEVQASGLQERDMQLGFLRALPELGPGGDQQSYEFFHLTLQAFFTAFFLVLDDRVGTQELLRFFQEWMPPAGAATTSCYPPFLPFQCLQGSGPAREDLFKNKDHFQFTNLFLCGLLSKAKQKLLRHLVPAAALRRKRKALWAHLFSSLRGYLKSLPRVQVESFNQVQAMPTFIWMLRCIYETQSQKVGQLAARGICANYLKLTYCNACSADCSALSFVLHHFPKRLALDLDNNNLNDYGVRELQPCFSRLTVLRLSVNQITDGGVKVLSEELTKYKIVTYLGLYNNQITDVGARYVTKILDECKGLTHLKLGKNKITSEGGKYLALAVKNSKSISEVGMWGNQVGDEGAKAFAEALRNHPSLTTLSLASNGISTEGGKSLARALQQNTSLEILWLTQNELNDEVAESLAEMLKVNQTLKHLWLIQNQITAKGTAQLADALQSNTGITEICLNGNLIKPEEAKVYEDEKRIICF

T1 sequence (Q9UBE0 whole entry): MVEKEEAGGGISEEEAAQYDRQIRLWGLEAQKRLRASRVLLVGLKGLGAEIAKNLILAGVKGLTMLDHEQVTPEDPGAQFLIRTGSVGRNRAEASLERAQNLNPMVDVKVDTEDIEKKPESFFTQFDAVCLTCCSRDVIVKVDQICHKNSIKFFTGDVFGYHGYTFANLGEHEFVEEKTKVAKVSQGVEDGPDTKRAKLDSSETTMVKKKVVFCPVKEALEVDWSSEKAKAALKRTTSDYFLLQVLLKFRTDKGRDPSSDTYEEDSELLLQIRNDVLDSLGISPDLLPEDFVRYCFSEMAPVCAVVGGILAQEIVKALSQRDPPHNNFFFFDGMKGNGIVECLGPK
T1 sequence (Q9UBT2 whole entry): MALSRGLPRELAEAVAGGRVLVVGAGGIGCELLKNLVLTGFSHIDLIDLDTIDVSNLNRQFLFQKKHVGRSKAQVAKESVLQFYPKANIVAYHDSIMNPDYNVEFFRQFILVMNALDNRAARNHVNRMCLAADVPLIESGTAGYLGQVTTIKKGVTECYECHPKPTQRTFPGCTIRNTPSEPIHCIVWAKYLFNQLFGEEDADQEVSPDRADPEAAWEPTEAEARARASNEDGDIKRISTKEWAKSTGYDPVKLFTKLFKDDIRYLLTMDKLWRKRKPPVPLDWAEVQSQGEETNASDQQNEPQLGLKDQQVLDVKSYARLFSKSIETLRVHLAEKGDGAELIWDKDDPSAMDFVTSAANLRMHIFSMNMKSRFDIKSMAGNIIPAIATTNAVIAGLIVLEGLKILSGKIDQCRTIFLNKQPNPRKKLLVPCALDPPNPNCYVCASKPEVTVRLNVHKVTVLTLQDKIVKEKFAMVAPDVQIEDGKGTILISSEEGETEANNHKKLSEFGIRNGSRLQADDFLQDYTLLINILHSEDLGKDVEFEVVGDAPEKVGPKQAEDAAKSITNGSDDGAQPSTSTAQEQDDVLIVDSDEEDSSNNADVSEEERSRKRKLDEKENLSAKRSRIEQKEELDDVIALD
T4 sequence (P41145 whole entry): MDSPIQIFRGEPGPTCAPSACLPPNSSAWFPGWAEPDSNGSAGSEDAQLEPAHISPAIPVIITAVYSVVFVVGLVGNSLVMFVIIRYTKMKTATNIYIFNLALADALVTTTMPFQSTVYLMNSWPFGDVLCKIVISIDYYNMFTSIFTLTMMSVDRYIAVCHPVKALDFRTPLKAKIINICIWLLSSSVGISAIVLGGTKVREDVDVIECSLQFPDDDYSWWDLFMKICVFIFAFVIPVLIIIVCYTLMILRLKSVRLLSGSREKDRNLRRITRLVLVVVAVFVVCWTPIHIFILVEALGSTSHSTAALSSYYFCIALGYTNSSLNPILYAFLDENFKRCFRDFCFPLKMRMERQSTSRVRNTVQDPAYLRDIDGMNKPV
T3 sequence (Q8VNN2 whole entry): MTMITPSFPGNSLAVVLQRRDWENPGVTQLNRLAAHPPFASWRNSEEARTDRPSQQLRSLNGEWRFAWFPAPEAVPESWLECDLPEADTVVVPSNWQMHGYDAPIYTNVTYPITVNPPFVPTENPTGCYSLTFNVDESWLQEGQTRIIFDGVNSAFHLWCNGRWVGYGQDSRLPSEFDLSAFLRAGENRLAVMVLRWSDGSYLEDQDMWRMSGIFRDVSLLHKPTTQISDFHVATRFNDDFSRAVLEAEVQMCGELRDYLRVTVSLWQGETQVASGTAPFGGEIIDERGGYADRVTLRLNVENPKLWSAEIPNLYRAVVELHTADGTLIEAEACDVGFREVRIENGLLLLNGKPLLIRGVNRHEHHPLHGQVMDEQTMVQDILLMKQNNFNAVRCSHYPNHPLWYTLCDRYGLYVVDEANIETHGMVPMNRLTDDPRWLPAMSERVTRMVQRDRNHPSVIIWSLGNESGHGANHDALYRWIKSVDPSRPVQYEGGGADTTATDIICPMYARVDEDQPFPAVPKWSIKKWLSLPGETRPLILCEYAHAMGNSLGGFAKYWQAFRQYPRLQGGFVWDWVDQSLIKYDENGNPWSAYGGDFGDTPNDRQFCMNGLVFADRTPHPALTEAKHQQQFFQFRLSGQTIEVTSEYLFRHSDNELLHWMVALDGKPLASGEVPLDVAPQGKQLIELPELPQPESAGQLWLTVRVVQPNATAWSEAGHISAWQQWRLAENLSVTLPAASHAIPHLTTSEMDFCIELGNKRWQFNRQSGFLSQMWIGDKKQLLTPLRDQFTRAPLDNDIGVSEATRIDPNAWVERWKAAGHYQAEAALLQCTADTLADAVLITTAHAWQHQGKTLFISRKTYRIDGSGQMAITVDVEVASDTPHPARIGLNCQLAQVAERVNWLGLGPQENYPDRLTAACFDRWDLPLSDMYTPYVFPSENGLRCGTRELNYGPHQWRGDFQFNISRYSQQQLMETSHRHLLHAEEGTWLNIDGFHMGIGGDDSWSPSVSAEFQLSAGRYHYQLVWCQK
Chain of Lysosomal acid glucosylceramidase (P04062 whole entry, the tested form may be a part): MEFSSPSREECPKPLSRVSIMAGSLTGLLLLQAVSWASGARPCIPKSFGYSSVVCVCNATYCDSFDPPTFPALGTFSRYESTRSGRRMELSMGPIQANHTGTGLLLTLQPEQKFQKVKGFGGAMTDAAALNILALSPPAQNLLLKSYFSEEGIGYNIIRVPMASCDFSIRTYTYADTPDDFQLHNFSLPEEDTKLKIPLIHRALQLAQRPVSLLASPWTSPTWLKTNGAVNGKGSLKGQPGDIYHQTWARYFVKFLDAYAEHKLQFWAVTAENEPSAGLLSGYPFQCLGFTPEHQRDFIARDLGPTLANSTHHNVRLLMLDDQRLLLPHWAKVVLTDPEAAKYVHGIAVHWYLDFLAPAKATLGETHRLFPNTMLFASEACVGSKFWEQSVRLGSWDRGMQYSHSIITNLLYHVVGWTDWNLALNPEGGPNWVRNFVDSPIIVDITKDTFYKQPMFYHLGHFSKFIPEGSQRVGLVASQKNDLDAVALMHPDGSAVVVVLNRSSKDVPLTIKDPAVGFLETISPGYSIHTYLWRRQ
Chain of Guanyl-specific ribonuclease T1 (P00651 whole entry): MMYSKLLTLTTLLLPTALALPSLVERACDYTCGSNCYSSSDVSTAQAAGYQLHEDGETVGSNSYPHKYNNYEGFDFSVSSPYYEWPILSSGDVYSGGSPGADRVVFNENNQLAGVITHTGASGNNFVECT
Chain of Mothers against decapentaplegic homolog 3 (P84022 whole entry, the tested form may be a part): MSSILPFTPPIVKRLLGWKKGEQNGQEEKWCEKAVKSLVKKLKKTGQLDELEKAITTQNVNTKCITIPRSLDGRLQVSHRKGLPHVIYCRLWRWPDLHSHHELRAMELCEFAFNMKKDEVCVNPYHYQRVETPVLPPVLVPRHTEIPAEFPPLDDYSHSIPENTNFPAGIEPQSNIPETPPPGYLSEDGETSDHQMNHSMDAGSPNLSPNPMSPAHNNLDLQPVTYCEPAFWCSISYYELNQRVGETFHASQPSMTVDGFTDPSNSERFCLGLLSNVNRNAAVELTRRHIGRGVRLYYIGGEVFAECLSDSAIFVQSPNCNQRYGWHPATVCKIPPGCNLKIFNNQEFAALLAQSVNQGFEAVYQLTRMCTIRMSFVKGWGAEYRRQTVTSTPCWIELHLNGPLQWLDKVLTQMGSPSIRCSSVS
Chain of Likely tRNA 2'-phosphotransferase (Q5A7N4 whole entry): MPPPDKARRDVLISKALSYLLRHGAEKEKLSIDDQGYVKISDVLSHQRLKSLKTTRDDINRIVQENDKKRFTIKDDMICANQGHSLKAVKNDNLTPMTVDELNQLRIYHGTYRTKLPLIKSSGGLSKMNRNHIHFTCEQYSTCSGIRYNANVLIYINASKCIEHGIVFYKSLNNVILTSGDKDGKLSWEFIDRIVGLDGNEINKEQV
Chain of Cytochrome P450 2C9 (P11712 whole entry, the tested form may be a part): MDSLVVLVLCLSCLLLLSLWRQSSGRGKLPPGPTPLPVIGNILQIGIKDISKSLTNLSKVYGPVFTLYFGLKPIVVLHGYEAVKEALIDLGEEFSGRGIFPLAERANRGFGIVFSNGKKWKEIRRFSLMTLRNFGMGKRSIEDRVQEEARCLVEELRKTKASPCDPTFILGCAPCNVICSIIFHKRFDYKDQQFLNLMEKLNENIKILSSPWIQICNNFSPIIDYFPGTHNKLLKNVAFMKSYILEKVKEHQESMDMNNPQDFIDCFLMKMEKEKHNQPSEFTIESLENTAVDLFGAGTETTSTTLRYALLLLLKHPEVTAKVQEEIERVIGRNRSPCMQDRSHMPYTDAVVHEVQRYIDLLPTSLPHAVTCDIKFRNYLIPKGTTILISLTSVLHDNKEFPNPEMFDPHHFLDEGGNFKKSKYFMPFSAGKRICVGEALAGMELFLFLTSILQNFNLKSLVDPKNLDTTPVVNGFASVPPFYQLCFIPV
Chain of Wee1-like protein kinase (P30291 whole entry): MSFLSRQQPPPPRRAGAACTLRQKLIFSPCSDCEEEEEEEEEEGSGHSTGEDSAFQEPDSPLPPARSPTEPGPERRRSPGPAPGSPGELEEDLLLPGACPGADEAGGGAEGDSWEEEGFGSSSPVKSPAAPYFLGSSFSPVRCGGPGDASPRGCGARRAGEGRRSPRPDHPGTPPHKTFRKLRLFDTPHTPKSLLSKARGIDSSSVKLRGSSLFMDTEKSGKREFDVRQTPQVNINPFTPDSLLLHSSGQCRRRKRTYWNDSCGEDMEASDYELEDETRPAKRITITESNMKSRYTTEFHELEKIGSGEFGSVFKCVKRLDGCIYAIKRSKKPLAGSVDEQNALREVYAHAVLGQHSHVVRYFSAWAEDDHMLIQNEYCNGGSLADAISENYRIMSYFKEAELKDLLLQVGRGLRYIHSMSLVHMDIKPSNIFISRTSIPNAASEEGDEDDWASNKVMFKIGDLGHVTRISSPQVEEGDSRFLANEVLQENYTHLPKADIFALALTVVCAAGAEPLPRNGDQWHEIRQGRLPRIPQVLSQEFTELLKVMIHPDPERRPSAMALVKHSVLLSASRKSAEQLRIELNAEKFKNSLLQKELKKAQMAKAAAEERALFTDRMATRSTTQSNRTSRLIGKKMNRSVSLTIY
Chain of Protein Rev (P05866 whole entry): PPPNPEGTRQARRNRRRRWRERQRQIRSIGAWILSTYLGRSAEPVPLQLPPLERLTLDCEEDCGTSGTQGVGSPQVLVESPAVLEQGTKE

## COc1cc(/C=C2\SC(=O)N(CC(=O)Nc3ccccc3F)C2=O)cc(Cl)c1O
[1]
  IC50: 0.275 µM (active)
SUMO-activating enzyme [2]
  IC50: 15.6 µM (active)
SUMO-activating enzyme [3]
  IC50: 22.1 µM (active)
[4]
  IC50: 0.238 µM (active)

## O=C(O)Cc1ccccc1Nc1c(Cl)cccc1Cl [DICLOFENAC]
Staphylococcus aureus
  IC50: 0.943 µM (active)

## COC(=O)c1c(C(=O)OC)n(CCCN)c2ccc(C)cc12
Protein Rev
  IC50: > 79.4 µM (not active)

## COc1ccc(C(c2cc3c(cc2O)OCO3)N2CCOCC2)cc1 (stereo unspecified)
[5]
  IC50: 6.51 µM (not active)

## COc1ccc2[nH]c(=O)c3c(c2c1)OC(C)(C)C=C3 [HAPLAMINE]
[6]
  AC50: 5.53 µM (active)
Cytochrome P450 2C9
  AC50: 25.1 µM (inconclusive)
[7]
  AC50: 5.32 µM (active)
[8]
  AC50: 3.86 µM (active)
[9]
  AC50: 14.8 µM (active)
[10]
  AC50: 10.4 µM (active)
Cytochrome P450 2C19
  AC50: 7.94 µM (inconclusive)

## COc1cccc(C(=O)O/N=C(\N)c2ccccn2)c1
[11]
  EC50: 3.65 µM (active)
[12]
  AC50: 26.7 µM (active)

## Nc1nc2ccccc2n1S(=O)(=O)c1ccc(Cl)cc1
Interleukin-8
  IC50: > 5 µM (inactive)

## COc1ccc(NC(=O)/C(Cl)=C(/Cl)[S+]([O-])Cc2ccc(C)cc2)cn1 (stereo unspecified)
[11]
  EC50: 5.74 µM (active)
[13]
  IC50: 0.396 µM (active)
[14]
  EC50: > 49.7 µM (not active)
Wee1-like protein kinase
  EC50: > 49.7 µM (not active)
[15]
  IC50: 29.8 µM (inactive)
[16]
  IC50: 4.46 µM (active)
Beta-galactosidase [17]
  EC50: > 31.5 µM (inactive)
[18]
  IC50: 3.76 µM (active)
[19]
  IC50: 0.967 µM (active)
HeLa
  CC50: 1.12 µM (active)
[20]
  IC50: 4.71 µM
[21]
  EC50: > 112 µM (not active)
INS1
  AC50: 0.855 µM (active)
Beta-galactosidase [22]
  EC50: > 40 µM (inactive)
[23]
  EC50: 0.96 µM (active)
[24]
  IC50: 2.26 µM (active)
[25]
  CC50: 2.13 µM (active)
[26]
  IC50: 0.879 µM (active)

## CC(=O)c1c(C(C)=O)c(C)n(-c2ccc(C)c(NC(=O)c3ccccc3Cl)c2)c1C
[27]
  AC50: 0.043 µM (active)

## CN(CC(=O)Nc1ccc(F)c(F)c1)S(=O)(=O)c1cccc2nsnc12
[28]
  EC50: > 50 µM (not active)

## CN(C)c1ccc(C(=O)Nc2nc3ccccc3n2Cc2ccc(Cl)cc2)cc1
[29]
  IC50: > 20 µM (inactive)
Tumor necrosis factor
  IC50: > 20 µM (inactive)
HEK293
  IC50: > 20 µM (inactive)
[30]
  IC50: > 20 µM (inactive)
